By pIC50 is commonly meant the negative decadic logarithm of the IC50, by convention in mol/L.

The nature of data set [1]: NMR kinetic solubility assay. The data set is classed as physicochemical. As to conditions: kinetic solubility by NMR, HEPES buffer pH 8, 4% DMSO. On the procedure: 3. Supplementary experimental: physicochemical assays
The plate was then sealed and incubated at room temperature for 20 hours, without shaking. The plate was centrifuged again for 1 minute at […]
spectrometer equipped with a 5 mm TCI-CryoProbe. […]
deuterated solvent. […] All NMR data were acquired at the […]
contained 16k time-domain data points. Relaxation delay was set to 20 sec. Water signal was […]
The quantification of the compound concentration was carried out using MestReNova

The target in the next data set is human BCL6 BTB domain (Homo sapiens, UniProt P41182). The data set is described as follows: biochemical. The settings on record: for BCL6 TR-FRET mean pIC50: mean of replicates; for LE: ligand efficiency, 1.4*(pIC50)/HAC from TR-FRET; for LLE: lipophilic ligand efficiency from TR-FRET pIC50 and MoKa logD7.4. From the text:
6. Supplementary tables … S-17
Table S1: summary statistics and individual replicate values … S-17 […]
1. Supplementary experimental: protein production, purification and crystallography 1.1 BCL6 constructs used for assays and crystallography
A first construct of BCL6 BTB domain, which we will refer to as Trx-6His-HRV3C-BCL6, was obtained […]
3C protease cleavage site. For the TR-FRET assay, the Trx-6His-HRV3C-BCL6 protein construct was […]
used without cleaving the tag, as a 6His was needed to bind to the anti-6His-Terbium antibody. […]
For both plasmid constructs described above, transformed BL21-AI E. coli cells were grown in LB […]
carried out at 18 °C for 18 hours. Cells were harvested by centrifugation (5500 g for 30 minutes at 4 […]
oC) and stored at -80 °C.
2. Supplementary experimental: biological assay conditions
IC50 values were determined using […]
a sigmoidal four-parameter logistic fit equation.
Individual replicates shown in supplementary
On the technique in general: TR-FRET usually uses a lanthanide donor and a delayed reading to cut background.

[2] abbreviates: BCL6 TR-FRET IC50 individual replicates, single replicates, 10 nM BCL6 for early examples, else 1 nM.
[3] abbreviates: read-out: BCL6 TR-FRET IC50, geometric mean of replicates.
Setting [4] is: read-out: BCL6 TR-FRET IC50 individual replicates, single replicates, 10 nM BCL6 for early examples, else 1 nM.
Setting [5] is: BCL6 TR-FRET mean pIC50, mean of replicates.

pIC50: −log10 of the molar value. Several values for one entry are separate records, joined by “and”; a condition that tells them apart may be missing. Identical values can stand only once. Like-named read-outs stand apart in the source and are kept apart here.

With `C[C@H]1C[C@H](C)Oc2c(c3cc(Nc4ccnc(Cl)c4C#N)ccc3n(C)c2=O)N1` [Compound 13a, 2-Chloro-4-(((2S,4S)-2,4,7-trimethyl-6-oxo-1,2,3,4,6,7-hexahydro-[1,4]oxazepino[2,3-c]quinolin-10-yl)amino)nicotinonitrile], the “Aq. Sol” value in data set [1] stood at 114 µM.
On to `CCNc1c(C)c(=O)n(C)c2ccc(Nc3ccnc(Cl)c3C#N)cc12` [Compound 4, 2-Chloro-4-((4-(ethylamino)-1,3-dimethyl-2-oxo-1,2-dihydroquinolin-6-yl)amino)nicotinonitrile], for which the pIC50 against human BCL6 BTB domain (setting [2]) was 5.22 and 5.34; at human BCL6 BTB domain (setting [3]) it was 5.25; on human BCL6 BTB domain (setting [4]), 5.25 and 5.24. Besides, the “BCL6 TR-FRET mean pIC50” value at human BCL6 BTB domain worked out at 5.25.
Regarding `C[C@H]1CCOc2c(c3cc(Nc4ccnc(Cl)c4C#N)ccc3n(C)c2=O)N1` [Compound 9a, (S)-2-Chloro-4-((2,7-dimethyl-6-oxo-1,2,3,4,6,7-hexahydro-[1,4]oxazepino-[2,3-c]quinolin-10-yl)amino)nicotinonitrile], the “Aq. Sol” value in data set [1] is 200^+ μM and 199 μM.
Turning to `CNC(=O)COc1cc2cc(Nc3nc(N4C[C@H](C)C[C@H](C)C4)ncc3Cl)ccc2n(C)c1=O` [BI-3802, reference compound], the pIC50 is 7.92 and 7.29 and 7.60 and 6.97 and 7.41 and 7.68 against human BCL6 BTB domain (setting [2]); 7.48 against human BCL6 BTB domain (setting [5]). The compound also gave an LE on human BCL6 BTB domain of 0.31. Also, the LLE at human BCL6 BTB domain amounted to 3.98.
Turning to `C[C@H]1COCc2c(c3cc(Nc4ccnc(Cl)c4C#N)ccc3n(C)c2=O)N1` [Compound 8, (S)-2-Chloro-4-((2,7-dimethyl-6-oxo-1,2,3,5,6,7-hexahydro-[1,4]oxazepino[6,5-c]quinolin-10-yl)amino)nicotinonitrile], the negative logarithm of the IC50 (pIC50) against human BCL6 BTB domain (setting [2]) was 5.63; at human BCL6 BTB domain (setting [3]), 5.65 and 5.66; at human BCL6 BTB domain (setting [4]), 5.66. Moreover, on human BCL6 BTB domain, the “BCL6 TR-FRET mean pIC50” value was 5.65.
As for `CCC1CCOc2c(c3cc(Nc4ccnc(Cl)c4C#N)ccc3n(C)c2=O)N1` (stereo not drawn) [Compound 11b, 2-Chloro-4-((2-ethyl-7-methyl-6-oxo-1,2,3,4,6,7-hexahydro-[1,4]oxazepino[2,3-c]quinolin-10-yl)amino)nicotinonitrile], the pIC50 was 6.34 and 6.30 and 5.99 on human BCL6 BTB domain (setting [2]); 6.21 at human BCL6 BTB domain (setting [3]). Further, the “BCL6 TR-FRET mean pIC50” value on human BCL6 BTB domain was 6.21. Moreover, the “Aq. Sol” value in data set [1] came out at 96 µM.
Turning to `C[C@@H]1CCOc2c(c3cc(Nc4ccnc(Cl)c4C#N)ccc3n(C)c2=O)N1` [Compound 9b, (R)-2-Chloro-4-((2,7-dimethyl-6-oxo-1,2,3,4,6,7-hexahydro-[1,4]oxazepino-[2,3-c]quinolin-10-yl)amino)nicotinonitrile], in data set [1], the “Aq. Sol” value is 190^+ μM.
For the compound `CC1Nc2c(c(=O)n(C)c3ccc(Nc4ccnc(Cl)c4C#N)cc23)OCC1(C)C` (stereo not drawn) [Compound 13c, 2-Chloro-4-((2,3,3,7-tetramethyl-6-oxo-1,2,3,4,6,7-hexahydro-[1,4]oxazepino[2,3-c]quinolin-10-yl)amino)nicotinonitrile], in data set [1], the “Aq. Sol” value came to 31 µM.
For the compound `CNC(=O)COc1cc2cc(Nc3nc(N4CCC(C(=O)N(C)C)CC4)ncc3Cl)cc(OC)c2n(C)c1=O` [BI-3812, reference compound], the pIC50 on human BCL6 BTB domain (setting [2]) and on human BCL6 BTB domain (setting [5]) was 8.52 throughout. This compound also returned an LE on human BCL6 BTB domain of 0.31. At human BCL6 BTB domain, this compound displayed an LLE of 6.76.
As to `Cn1c(=O)c2c(c3cc(Nc4ccnc(Cl)c4C#N)ccc31)N[C@H](C1CC1)C(F)(F)CO2` [Compound 14, (R)-2-Chloro-4-((2-cyclopropyl-3,3-difluoro-7-methyl-6-oxo-1,2,3,4,6,7-hexahydro-[1,4]oxazepino[2,3-c]quinolin-10-yl)amino)nicotinonitrile], the pIC50 at human BCL6 BTB domain (setting [2]) is 6.21 and 6.40; at human BCL6 BTB domain (setting [3]) it was 6.31. Moreover, the “BCL6 TR-FRET mean pIC50” value on human BCL6 BTB domain was determined as 6.31.

For the origin of these results see publication PMC9234963, “Optimizing Shape Complementarity Enables the Discovery of Potent Tricyclic BCL6 Inhibitors” (Journal of Medicinal Chemistry, 2022).
